Two molecules from paper PMC7617456, “Cryptosporidium lysyl-tRNA synthetase inhibitors define the interplay between solubility and permeability required to achieve efficacy” (Science translational medicine, 2024) can be followed below.

Like-named read-outs stand apart in the source and are kept apart here.

One data set in a line: Calf tolerability study. Conditions: 15 mg/kg twice daily oral 7 days. Format: in vivo. As for the experimental part:
Calf efficacy and tolerability study
Calf tolerability study (Moredun Scientific)
A tolerability study was conducted on uninfected calves prior to efficacy studies to confirm palatability and tolerance. Starting at day 2 post birth (“Day 1”), DDD489 or DDD508 were administered to four male calves per treatment group. The test compound was dosed at 15 mg/kg (maximum volume of 20 ml per occasion; prepared in vehicle: 0.5% HPMC, 0.4% Tween 80, 0.5% Benzyl alcohol in sterile water) for a total of 7 days. Administration was by oral gavage twice daily immediately prior to milk feeds, and at least 8 hours apart (± 30 minutes). Body weight was measured on day 0 and day 7, and clinical observations were recorded twice a day during dosing. Blood samples were collected from all animals prior to the morning treatment on Day 1, then 5 (± 2) minutes, 15 (± 2) minutes, 30 (± 5) minutes, 1, 2, 4, 8 and 24 hours (± 10 minutes) post first daily dose. This sample schedule was repeated on Day 7 for the same animals. Blood samples were processed to plasma. […]

Another data set can be described thus: Rat pharmacokinetics. Particulars: for half-life / Vd / AUC / Cmax / Tmax / bioavailability: male, Hans Wistar, whole blood; for half-life / Vd: 3 mg/kg, rat, IV; for half-life: read-out: T½ (converted); for Vd: read-out: Vdss; for bioavailability: read-out: F (oral bioavailability); for CLB: rat IV, clearance in blood. It counts as in vivo. On the procedure:
Rat pharmacokinetics (Dundee)
As for mice except using male Hans Wistar rats (IV dose volume 1 mL/kg; PO dose volume: […]
Pharmacokinetic parameters were
derived from the blood concentration-time curve using WinNonLin Professional Software v
6.3 (Pharsight Corporation). […]

A further data set has as its system KRS-OE. Put plainly: Transgenic C. parvum NanoLuciferase drug sensitivity assay, KRS-OE. Format: cell-based. Particulars: Cryptosporidium parvum, HCT-8, 48 h, read-out: EC50, KRS-OE.
In another data set the test system is KRS-A309L. In words: Transgenic C. parvum NanoLuciferase drug sensitivity assay, KRS-A309L. Format: cell-based. Conditions: Cryptosporidium parvum, HCT-8, 48 h, read-out: EC50, KRS-A309L.
The subject of another data set is P-gp (MDR1). Put plainly: in vitro. Conditions: dog, MDCK-MDR1.
Data set [1] can be described thus: Liver microsomal intrinsic clearance, mouse. It counts as in vitro ADME. Particulars: mouse liver microsomes. (Liver microsomes are a subcellular fraction often used to study metabolism.)
The nature of data set [2]: Hepatocyte intrinsic clearance, human. It counts as in vitro ADME. Particulars: human hepatocytes.
The nature of data set [3]: Plasma protein binding, dog. Format: in vitro ADME. Conditions: read-out: PPB (d) (converted).
Data set [4] can be described thus: Plasma protein binding, bovine. It counts as in vitro ADME. Conditions: calf plasma, PPB assay, read-out: fraction unbound (fu).
The next data set concerns the target CYP450 1A2 (Homo sapiens, UniProt P05177). Put plainly: CYP450 inhibition 1A2. It counts as in vitro ADME. As for the experimental part: (§1) CYP450 inhibition (Dundee)
(§2) As previously described.(31)
(§3) DDD489 and DDD508 were evaluated for their ability to induce reverse mutations both in the presence and absence of S9 mix at the histidine locus in the genome of four strains of Salmonella typhimurium (TA98, TA100, TA1535, and TA97a) and at the tryptophan locus in the genome of Escherichia coli WP2 uvrA in a mini-Ames study conducted at WuXi App Tec […]
(§4) hERG inhibition (WuXi App Tec)
(§5) DDD489 and DDD508 were evaluated for their effects on cloned hERG potassium channels stably expressed in Chinese Hamster Ovary (CHO) cells using manual patch-clamp technique in a hERG inhibition assay conducted at WuXi App Tec (Suzhou).
(§6) Mitochondrial toxicity (Cyprotex)
(§7) DDD489 and DDD508 were evaluated for their effects on mitochondrial function in a functional mitochondrial toxicity assay using Seahorse XFe96 flux analyser conducted at […]
(§8) 44 screen safety panel (Eurofins)
(§9) DDD489 was evaluated for off-target effects in a SafetyScreen44 panel at Eurofins Cerep.
(§10) All regulated procedures, at the University of Dundee, on living animals were carried out under the authority of a project license issued by the Home Office under the Animals (Scientific Procedures) Act 1986, as amended in 2012 (and in compliance with EU Directive EU/2010/63). […]

The next data set has as its target CYP450 3A4 (Homo sapiens, UniProt P08684). Put plainly: CYP450 inhibition 3A4. Format: in vitro ADME. As for the experimental part: as §1, §2, §3, §4, §5, §6, §7, §8, §9, §10
In another data set the test system is mitochondrial function. In words: Functional mitochondrial toxicity assay (Seahorse XFe96). Format: cell-based.
The mark [5] stands for this setting: rat IV (DDD489 2.8, DDD508 3.47 mg/kg).
[6] abbreviates: read-out: Oxygen consumption AC50.

Sequence of CYP450 1A2 (P05177 whole entry): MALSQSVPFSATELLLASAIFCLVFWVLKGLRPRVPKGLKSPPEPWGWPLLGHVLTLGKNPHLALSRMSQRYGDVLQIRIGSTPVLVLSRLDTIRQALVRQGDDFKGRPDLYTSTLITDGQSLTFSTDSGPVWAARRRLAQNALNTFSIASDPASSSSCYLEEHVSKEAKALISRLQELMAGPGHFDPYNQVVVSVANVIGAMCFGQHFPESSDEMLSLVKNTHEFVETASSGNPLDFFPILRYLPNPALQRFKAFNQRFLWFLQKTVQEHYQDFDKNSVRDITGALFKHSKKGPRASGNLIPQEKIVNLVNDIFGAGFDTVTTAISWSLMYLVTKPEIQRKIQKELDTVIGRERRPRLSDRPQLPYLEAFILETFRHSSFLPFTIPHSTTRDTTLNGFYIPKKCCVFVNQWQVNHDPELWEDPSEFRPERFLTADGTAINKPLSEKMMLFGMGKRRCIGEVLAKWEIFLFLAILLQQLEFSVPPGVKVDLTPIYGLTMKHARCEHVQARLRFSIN
Sequence of CYP450 3A4 (P08684 whole entry): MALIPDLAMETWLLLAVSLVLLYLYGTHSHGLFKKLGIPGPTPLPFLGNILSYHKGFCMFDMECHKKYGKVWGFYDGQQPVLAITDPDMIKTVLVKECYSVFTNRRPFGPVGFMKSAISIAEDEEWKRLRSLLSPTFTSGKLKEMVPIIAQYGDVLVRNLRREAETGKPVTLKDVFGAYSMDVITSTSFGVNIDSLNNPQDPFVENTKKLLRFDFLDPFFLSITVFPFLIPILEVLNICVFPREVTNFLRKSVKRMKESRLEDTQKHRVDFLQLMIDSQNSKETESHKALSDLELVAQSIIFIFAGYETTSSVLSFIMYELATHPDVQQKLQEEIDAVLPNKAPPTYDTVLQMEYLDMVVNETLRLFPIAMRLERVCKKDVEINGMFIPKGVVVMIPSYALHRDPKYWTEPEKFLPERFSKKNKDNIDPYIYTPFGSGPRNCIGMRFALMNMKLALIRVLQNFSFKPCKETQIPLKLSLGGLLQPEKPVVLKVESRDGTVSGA

As usually defined, the AUC is concentration integrated over time. Low values mean less exposure, high ones more exposure. In general, Cmax refers to the maximum level reached in the sampled fluid or tissue. Broadly, the Tmax is the time from dosing to the highest level. As a reminder, the bioavailability is the share of a dose that reaches the circulation, judged against a reference dose that is usually intravenous. The EC50 is the midpoint of the concentration-response curve. A word on the efflux ratio: it is a quotient of directional permeabilities that is used to spot active efflux. By IC50 is commonly meant the concentration that gives 50% inhibition. Low readings indicate higher potency, high ones lower potency. One may read the AC50 as the midpoint of the concentration-response curve, whichever way the signal moves. `Nc1nc2c(c(C(F)(F)F)n1)C(=O)N(CC1CCCC(C(F)(F)F)C1)C2` (stereo not drawn) [DDD489]: in the data set “Calf tolerability study”, the “tolerability in uninfected calves” value is “well tolerated”. Moreover, in “Rat pharmacokinetics”, the half-life is 1.2 h, the Vd was determined as 3.2 L/kg and the CLB is on record as 39 mL/min/kg. This molecule also had an AUC in the data set “Rat pharmacokinetics” (setting [5]) of 1200 ng·h/mL. Further, in the data set “Rat pharmacokinetics” (rat PO 10 mg/kg), the exposure (AUC) is 137 ng·h/mL, the concentration peaked (Cmax) at 30 ng/mL, the Tmax came out at 2 h and the bioavailability came to 3.2%. Also, the 50% effective concentration (EC50) in the data set with KRS-OE was 0.978 µM. In addition, the EC50 with KRS-A309L amounted to 8.63 µM. In addition, in the data set with P-gp (MDR1), the efflux ratio was 1.3. Also, the “Mics CLi (m)” value in [1] was 12 mL/min/g. Further, the “Heps CLi (h)” value in data set [2] was 1.1 mL/min/g. For the same molecule, the fraction unbound in data set [3] is 0.3. The fraction unbound in data set [4] worked out at 0.26. The molecule also showed an IC50 against CYP450 1A2 of 40 µM. The molecule further had a concentration for half-maximal inhibition (IC50) against CYP450 3A4 of over 100 µM. Moreover, in the data set with mitochondrial function, the “Extracellular acidification rate AC50” value is “No response” and the “Reserve capacity AC50” value is listed as “No response”. In addition, the AC50 with mitochondrial function (setting [6]) was over 100 µM.
As for `O=C(NCC1(O)CCCCC1)c1cc(=O)c2cc(O)ccc2o1` [DDD508], the “tolerability in uninfected calves” value in the data set “Calf tolerability study” is given as “well tolerated”. Besides, in the data set “Rat pharmacokinetics”, the half-life was 0.6 h, the Vd amounted to 2.1 L/kg and the CLB amounted to 64 mL/min/kg. In “Rat pharmacokinetics” (setting [5]), this molecule had an exposure (AUC) of 900 ng·h/mL. In the data set “Rat pharmacokinetics” (rat PO 10 mg/kg), the AUC is 367 ng·h/mL, the maximum concentration (Cmax) stood at 100 ng/mL, the time of peak concentration (Tmax) is 1 h and the bioavailability was found to be 14%. In addition, the concentration giving a half-maximal response (EC50) in the data set on KRS-OE was over 1 µM. Further, the EC50 in the data set with KRS-A309L worked out at 9.93 µM. Further, in the data set with P-gp (MDR1), the efflux ratio was 9.5. Also, the “Mics CLi (m)” value in [1] amounted to 1.4 mL/min/g. In data set [2], the “Heps CLi (h)” value is on record as under 0.5 mL/min/g. The fraction unbound in [3] is 0.52. The fraction unbound in [4] turned out to be 0.53. Also, on CYP450 1A2, the IC50 is over 100 µM. The molecule also registered a 50% inhibitory concentration (IC50) on CYP450 3A4 of over 100 µM. Also, the “Extracellular acidification rate AC50” value with mitochondrial function is on record as “No response”. Besides, the AC50 in the data set with mitochondrial function (setting [6]) was over 100 µM. The AC50 in the data set on mitochondrial function (read-out: Reserve capacity AC50) was over 100 µM.
